Laboratory results published in patent US6979686B1, “Substituted pyrazoles as p38 kinase inhibitors” (Pharmacia Corporation, priority 2001, dated 2005).

Biological target: T1, human p38 kinase alpha (Homo sapiens, UniProt Q16539)
T1 construct: GST (N, cleaved yes); made in house; host or cells: E. coli DH10B
Experiment: p38 kinase in vitro assay, phosphorylation of biotinylated PHAS-I with 32P-ATP
Format: biochemical
Settings: @ 1.0 uM
Method: The coding region of the human p38a cDNA was obtained by PCR-amplification from RNA isolated from the human monocyte cell line THP.1. […] Random primer, dNTP's and Superscript™ reagents were all purchased from Life-Technologies, Gaithersburg, Mass. The reaction was incubated at 42° C. for 1 hour. Amplification of p38 cDNA was performed by aliquoting 5 μl of the reverse transcriptase reaction into a 100 μl PCR reaction containing the following: 80 μl dH2O, 2 μl 50 mM DNTP's, 1 μl each of forward and reverse primers (50 pmol/μl), 10 μl of 10×buffer and 1 μl Expand™ polymerase (Boehringer Mannheim). The PCR primers incorporated BamHI sites onto the 5′ and 3′ end of the amplified fragment, and were purchased from Genosys. […] The PCR amplification was carried out in a DNA Thermal Cycler (Perkin Elmer) by repeating 30 cycles of 94° C. for 1 minute, 60° C. for 1 minute and 68° C. for 2 minutes. After amplification, excess primers and unincorporated dNTP's were removed from the amplified fragment with a Wizard™ PCR prep (Promega) and digested with BamHI (New England Biolabs). The BamHI digested fragment was ligated into BamHI digested PGEX 2T plasmid DNA (PharmaciaBiotech) using T-4 DNA ligase (New England Biolabs) as described by T. Maniatis, Molecular Cloning: A Laboratory Manual, 2nd ed. […] The ligation reaction was transformed into chemically competent E. coli DH10B cells purchased from Life-Technologies following the manufacturer's instructions. Plasmid DNA was isolated from the resulting bacterial colonies using a Promega Wizard™ miniprep kit.
Expression of Human p38a:
Overnight cultures were grown in-Luria Broth (LB) containing […] ampicillin. The next day, 500 ml of fresh LB was inoculated with 10 ml of overnight culture, and grown in a 2 liter flask at 37° C. with constant shaking until the culture reached an absorbance of 0.8 at 600 nm. Expression of the fusion protein was induced by addition of isopropyl b-D-thiogalactosidse (IPTG) to a final concentration of 0.05 mM. The cultures were shaken for three hours at room temperature, and the cells were harvested by centrifugation. The cell pellets were stored frozen until protein purification.
Purification of p38 Kinase-α:
All chemicals were from Sigma Chemical Co. unless noted. Twenty grams of E. coli cell pellet collected from five 1 L shake flask fermentations was resuspended in a volume of PBS (140 mM NaCl, 2.7 mM KCl, 10 mM Na2HPO4, 1.8 mM KH2PO4, pH 7.3) up to 200 ml. The cell suspension was adjusted to 5 mM DTT with 2 M DTT and then split equally into five 50 ml Falcon conical tubes. The cells were sonnicated (Ultrasonics model W375) with a 1 cm probe for 3×1 minutes (pulsed) on ice. Lysed cell material was removed by centrifugation (12,000×g, 15 minutes) and the clarified supernatant applied to glutathione-sepharose resin (Pharmacia).
Glutathione-sepharose Affinity Chromatography:
The resin was collected by centrifugation (600×g, 5 min) and washed with 2×150 ml PBS/1% Triton X-100, followed by 4×40 ml PBS. To cleave the p38 kinase from the GST-p38 fusion protein, the glutathione-sepharose resin was resuspended in 6 ml PBS containing 250 units thrombin protease (Pharmacia, specific activity>7500 units/mg) and mixed gently for 4 hours at room temperature. The glutathione-sepharose resin was removed by centrifugation (600×g, 5 min) and washed 2×6 ml with PBS. The PBS wash fractions and digest supernatant containing p38 kinase protein were pooled and adjusted to 0.3 mM PMSF.
Mono O Anion Exchange Chromatography:
The thrombin-cleaved p38 kinase was further purified by FPLC-anion exchange chromatography.

T1 sequence (Q16539 whole entry): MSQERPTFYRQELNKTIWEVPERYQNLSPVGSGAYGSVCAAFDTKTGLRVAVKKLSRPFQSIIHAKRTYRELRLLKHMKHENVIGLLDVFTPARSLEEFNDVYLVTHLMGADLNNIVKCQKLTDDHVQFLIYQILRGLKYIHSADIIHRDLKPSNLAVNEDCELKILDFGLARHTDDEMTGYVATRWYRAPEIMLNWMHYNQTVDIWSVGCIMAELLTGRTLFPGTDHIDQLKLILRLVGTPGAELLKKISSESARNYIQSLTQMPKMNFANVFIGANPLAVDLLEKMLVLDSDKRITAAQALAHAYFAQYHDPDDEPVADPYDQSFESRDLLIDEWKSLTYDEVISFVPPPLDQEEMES

| P38 alpha kinase % inhib @ conc. (uM) [% @] | Structure (SMILES) |
| --- | --- |
| 79.0 | CCOC(=O)NCCc1[nH]nc(-c2ccc(F)cc2)c1-c1ccncc1 [Example B-1054] |
| 79.0 | C[C@H](NC(=O)NCCc1[nH]nc(-c2ccc(F)cc2)c1-c1ccncc1)c1ccccc1 [Example B-1042] |
| 52.0 | O=C(NCCc1[nH]nc(-c2ccc(F)cc2)c1-c1ccncc1)c1ccccn1 [Example B-1007] |
| 92.0 | COc1cccc(CC(=O)NCCCc2[nH]nc(-c3ccc(F)cc3)c2-c2ccncc2)c1 [Example B-1178] |
| 88.0 | O=S(=O)(NCCc1[nH]nc(-c2ccc(F)cc2)c1-c1ccncc1)c1ccccc1 [Example B-1014] |
| 70.0 | O=C(NCCCc1[nH]nc(-c2ccc(F)cc2)c1-c1ccncc1)c1cccc(Br)c1 [Example B-1167] |
| 86.0 | C=CCOC(=O)NCCc1[nH]nc(-c2ccc(F)cc2)c1-c1ccncc1 [Example B-0985] |

Same assay, conditions: @ 1.0 uM; read-out: P38 alpha kinase % inhib @ conc.

| inhibition at 1 µM [%] | Structure (SMILES) |
| --- | --- |
| 73 | O=C(NCc1[nH]nc(-c2ccc(F)cc2)c1-c1ccncc1)c1cc(Cl)cc(Cl)c1 [Example B-0020] |
| 82 | CCCCCCC(=O)NCc1[nH]nc(-c2ccc(F)cc2)c1-c1ccncc1 [Example B-0015] |
| 92 | CC(C)c1cc(C(C)C)c(C(=O)NCc2[nH]nc(-c3ccc(F)cc3)c2-c2ccncc2)c(C(C)C)c1 [Example B-0030] |
| 82 | O=C(COCc1ccccc1)NCc1[nH]nc(-c2ccc(F)cc2)c1-c1ccncc1 [Example B-0006] |

Same assay, conditions: @ 10.0 uM

| P38 alpha kinase IC50, uM or % inhib @ conc. (uM): % inhib [% @] | P38 alpha kinase % inhib @ conc. [% @] | Structure (SMILES) |
| --- | --- | --- |
| 94.0 |  | Cc1c(-c2ccncc2)c(-c2ccc(F)cc2)nn1CC(=O)Nc1ccc(Cl)nc1 [Example B-2415] |
| 38.0 |  | Cc1c(-c2ccncc2)c(-c2ccc(F)cc2)nn1CC(=O)N(C)CCc1ccncc1 [Example B-2386] |
| 80.0 |  | CCCCCCOc1ccc(NC(=O)Cn2nc(-c3ccc(F)cc3)c(-c3ccncc3)c2C)cc1 [Example B-2436] |
| 88.0 |  | Cc1c(-c2ccncc2)c(-c2ccc(F)cc2)nn1CC(=O)Nc1ccccc1C(=O)OC(C)C [Example B-2454] |
|  | 38.0 | CC[C@H](C)[C@H](NC(=O)Cn1nc(-c2ccc(F)cc2)c(-c2ccncc2)c1C)C(=O)OC [Example B-2353] |
|  | 69.0 | Cc1c(-c2ccncc2)c(-c2ccc(F)cc2)nn1CC(=O)NC1Cc2ccccc2C1 [Example B-2321] |
| 86.0 |  | COc1ccc2nc(NC(=O)Cn3nc(-c4ccc(F)cc4)c(-c4ccncc4)c3C)sc2c1 [Example B-2414] |
| 94.0 |  | Cc1c(-c2ccncc2)c(-c2ccc(F)cc2)nn1CC(=O)Nc1ccccc1C(C)C [Example B-2433] |
| 86.0 |  | Cc1cccc(NC(=O)Cn2nc(-c3ccc(F)cc3)c(-c3ccncc3)c2C)c1 [Example B-2424] |

Same assay, conditions: activated human p38 kinase alpha, PHAS-I substrate, 50 μM unlabeled ATP; read-out: p38 kinase IC50

| IC50 [nM] | Structure (SMILES) |
| --- | --- |
| 2300 | Cc1[nH]nc(-c2ccc(Cl)cc2Cl)c1-c1ccncc1 [Example A-50] |

Same assay, conditions: in vitro P38-alpha kinase inhibition; read-out: P38 alpha kinase IC50

| IC50 [nM] | Structure (SMILES) |
| --- | --- |
| < 100 | CCCCS(=O)(=O)NC(Cc1ccccc1)c1[nH]nc(-c2ccc(F)cc2)c1-c1ccncc1 (stereo not drawn) [Example B-0761] |
| 1100 | CCCOC(=O)NC(Cc1ccccc1)c1[nH]nc(-c2ccc(F)cc2)c1-c1ccncc1 (stereo not drawn) [Example B-0792] |
| 76 | O=C(NCCc1[nH]nc(-c2ccc(F)cc2)c1-c1ccncc1)c1c(F)ccc(F)c1F [Example B-1131] |
| 1200 | CCNC(=O)NC(Cc1ccccc1)c1[nH]nc(-c2ccc(F)cc2)c1-c1ccncc1 (stereo not drawn) [Example B-0788] |
| 760 | Cc1cc(C)c(C(=O)NC(C)c2[nH]nc(-c3ccc(F)cc3)c2-c2ccncc2)c(C)c1 (stereo not drawn) [Example B-0682] |
| 57 | N#Cc1ccc(S(=O)(=O)NCCc2[nH]nc(-c3ccc(F)cc3)c2-c2ccncc2)cc1 [Example B-1107] |
| 1440 | O=C(NC(Cc1ccccc1)c1[nH]nc(-c2ccc(F)cc2)c1-c1ccncc1)c1cccnc1 (stereo not drawn) [Example B-0821] |
| < 100 | Cc1cccc(Cl)c1S(=O)(=O)NCCc1[nH]nc(-c2ccc(F)cc2)c1-c1ccncc1 [Example B-1095] |
| < 100 | CC(NS(=O)(=O)Cc1ccccc1[N+](=O)[O-])c1[nH]nc(-c2ccc(F)cc2)c1-c1ccncc1 (stereo not drawn) [Example B-0619] |
| 1710 | O=C(NCCc1[nH]nc(-c2ccc(F)cc2)c1-c1ccncc1)c1cc(C(F)(F)F)ccc1F [Example B-1134] |
| 76 | CC(NS(=O)(=O)c1cccc(Cl)c1Cl)c1[nH]nc(-c2ccc(F)cc2)c1-c1ccncc1 (stereo not drawn) [Example B-0622] |
| 650 | CC(NS(=O)(=O)CC12CCC(CC1=O)C2(C)C)c1[nH]nc(-c2ccc(F)cc2)c1-c1ccncc1 (stereo not drawn) [Example B-0611] |
| 1680 | O=C(NCCc1[nH]nc(-c2ccc(F)cc2)c1-c1ccncc1)c1ccc(F)c(C(F)(F)F)c1 [Example B-1140] |
| < 100 | O=S(=O)(NCCc1[nH]nc(-c2ccc(F)cc2)c1-c1ccncc1)c1ccc(-c2ccon2)s1 [Example B-1113] |
| 3410 | COc1cccc(C(=O)NC(Cc2ccccc2)c2[nH]nc(-c3ccc(F)cc3)c2-c2ccncc2)c1 (stereo not drawn) [Example B-0824] |
| 2100 | CC(C)COC(=O)NC(Cc1ccccc1)c1[nH]nc(-c2ccc(F)cc2)c1-c1ccncc1 (stereo not drawn) [Example B-0858] |
| 10800 | O=C(NC(Cc1ccccc1)c1[nH]nc(-c2ccc(F)cc2)c1-c1ccncc1)c1ccc(I)cc1 (stereo not drawn) [Example B-0807] |
| 910 | O=C(NC(Cc1ccccc1)c1[nH]nc(-c2ccc(F)cc2)c1-c1ccncc1)c1ccccc1 (stereo not drawn) [Example B-0851] |
| < 100 | CC(NS(=O)(=O)c1ccc(F)cc1Cl)c1[nH]nc(-c2ccc(F)cc2)c1-c1ccncc1 (stereo not drawn) [Example B-0626] |
| < 100 | C[C@@H](NS(=O)(=O)c1ccc(F)c(Cl)c1)c1[nH]nc(-c2ccc(F)cc2)c1-c1ccncc1 [Example B-0466] |

Same assay, conditions: in vitro P38-alpha kinase; read-out: P38 alpha kinase IC50

| IC50 [nM] | Structure (SMILES) |
| --- | --- |
| 180 | O=C(NCCCc1[nH]nc(-c2ccc(F)cc2)c1-c1ccncc1)c1c(F)cccc1C(F)(F)F [Example B-1338] |
| 5 | O=C(c1ccccc1I)N1CCC(c2[nH]nc(-c3ccc(F)cc3)c2-c2ccncc2)CC1 [Example B-1359] |
| 190 | C=CCOC(=O)N1CCC(c2[nH]nc(-c3ccc(F)cc3)c2-c2ccncc2)CC1 [Example B-1426] |
| 730 | O=S(=O)(NCCCc1[nH]nc(-c2ccc(F)cc2)c1-c1ccncc1)c1cc(S(=O)(=O)c2ccccc2)cs1 [Example B-1289] |
| 2410 | O=S(=O)(c1ccc(Cl)c(Cl)c1)N1CCC(c2[nH]nc(-c3ccc(F)cc3)c2-c2ccncc2)CC1 [Example B-1452] |
| < 100 | COc1ccc(OC)c(S(=O)(=O)NCCCc2[nH]nc(-c3ccc(F)cc3)c2-c2ccncc2)c1 [Example B-1262] |
| 70 | Cc1c(-c2ccncc2)c(-c2ccc(F)cc2)nn1CC(=O)NCCCCc1ccccc1 [Example B-2300] |
| 57 | O=C(NCc1ccc(S(=O)(=O)NCCCc2[nH]nc(-c3ccc(F)cc3)c2-c2ccncc2)s1)c1ccccc1 [Example B-1285] |
| < 100 | COc1ccc(Br)cc1S(=O)(=O)NCc1[nH]nc(-c2ccc(F)cc2)c1-c1ccncc1 [Example B-0249] |
| 120 | O=S(=O)(NCCCc1[nH]nc(-c2ccc(F)cc2)c1-c1ccncc1)c1ccc(Cl)s1 [Example B-1278] |
